Results: ChEMBL document CHEMBL1955806, “Design, synthesis, single-crystal and preliminary antitumor activity of novel arenesulfonylimidazolidin-2-ones” (2012)

Tests used:
Type in all cases: functional
CCRF-CEM = experiment: Growth inhibition of human CCRF-CEM cells at 10 uM after 48 hrs by sulforhodamine B assay; conditions: read-out: GI
NCI-H322M = experiment: Growth inhibition of human NCI-H322M cells at 10 uM after 48 hrs by sulforhodamine B assay; conditions: read-out: GI
NCI/ADR-RES = experiment: Growth inhibition of human NCI/ADR-RES cells at 10 uM after 48 hrs by sulforhodamine B assay; conditions: read-out: GI
UACC-62 = experiment: Growth inhibition of human UACC62 cells at 10 uM after 48 hrs by sulforhodamine B assay; conditions: UACC-62, 48 h, read-out: GI
BT-549 = experiment: Growth inhibition of human BT549 cells at 10 uM after 48 hrs by sulforhodamine B assay; conditions: BT-549, 48 h, read-out: GI
NCI-H460 = experiment: Growth inhibition of human NCI-H460 cells at 10 uM after 48 hrs by sulforhodamine B assay; conditions: NCI-H460, 48 h, read-out: GI
HT-29 = experiment: Growth inhibition of human HT-29 cells at 10 uM after 48 hrs by sulforhodamine B assay; conditions: HT-29, 48 h, read-out: GI
SF-539 = experiment: Growth inhibition of human SF539 cells at 10 uM after 48 hrs by sulforhodamine B assay; conditions: SF-539, 48 h, read-out: GI
OVCAR-3 = experiment: Growth inhibition of human OVCAR3 cells at 10 uM after 48 hrs by sulforhodamine B assay; conditions: OVCAR-3, 48 h, read-out: GI
RXF 393 = experiment: Growth inhibition of human RXF393 cells at 10 uM after 48 hrs by sulforhodamine B assay; conditions: RXF 393, 48 h, read-out: GI
HCC 2998 = experiment: Growth inhibition of human HCC2998 cells at 10 uM after 48 hrs by sulforhodamine B assay; conditions: HCC 2998, 48 h, read-out: GI
CAKI-1 = experiment: Growth inhibition of human CAKI-1 cells at 10 uM after 48 hrs by sulforhodamine B assay; conditions: CAKI-1, 48 h, read-out: GI
SR = experiment: Growth inhibition of human SR cells at 10 uM after 48 hrs by sulforhodamine B assay; conditions: read-out: GI
OVCAR-5 = experiment: Growth inhibition of human OVCAR5 cells at 10 uM after 48 hrs by sulforhodamine B assay; conditions: OVCAR-5, 48 h, read-out: GI
T47D = experiment: Growth inhibition of human T47D cells at 10 uM after 48 hrs by sulforhodamine B assay; conditions: read-out: GI
MDA-MB-231 = experiment: Growth inhibition of human MDA-MB-231/ATCC cells at 10 uM after 48 hrs by sulforhodamine B assay; conditions: MDA-MB-231, 48 h, read-out: GI

In the case of `CO[C@@H]1[C@@H](OC)N(S(=O)(=O)c2ccc(Cl)cc2)C(=O)N1S(=O)(=O)c1ccc(Cl)cc1` (relative stereo), the inhibition of growth at 10 µM (CCRF-CEM) is reported as 15.5%, the inhibition of growth at 10 µM (NCI-H322M) is reported as 14.7% and the inhibition of growth at 10 µM (NCI/ADR-RES) is reported as 13.8%. For the same compound, the inhibition of growth at 10 µM (UACC-62) was 42.1%, the inhibition of growth at 10 µM (BT-549) was 2.35% and the inhibition of growth at 10 µM (NCI-H460) was -1.36%. The inhibition of growth at 10 µM (HT-29) was 16%, the inhibition of growth at 10 µM (SF-539) was -15.2% and the inhibition of growth at 10 µM (OVCAR-3) was -4.48%. It also gave an inhibition of growth at 10 µM (RXF 393) of -11.5%, an inhibition of growth at 10 µM (HCC 2998) of 5.43% and an inhibition of growth at 10 µM (CAKI-1) of 67.5%. It also gave an inhibition of growth at 10 µM (SR) of 34.7%, an inhibition of growth at 10 µM (OVCAR-5) of 8.25% and an inhibition of growth at 10 µM (T47D) of 9.2%. The inhibition of growth at 10 µM (MDA-MB-231) was 23.4%.
